Test results reported in PubChem BioAssay (NCI).
Where “and” joins values, the source holds several entries; their conditions need not be identical. Equal entries are not always repeated.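 Dose response: 5 concentrations. Exposure: 48 h. Format: 96-well plates. Endpoint: linear interpolation; highest concentration if not reached. GI50 is the concentration that inhibits growth by half. TGI marks complete inhibition of growth.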

Key:
Assay in all cases: inhibition of tumour cell growth, NCI panel, 48 h
[1] = test system: ACHN renal
[2] = test system: OVCAR-4 ovarian
[3] = test system: A498 renal
[4] = test system: UO-31 renal
[5] = test system: MDA-MB-231 breast
[6] = test system: TK-10 renal
[7] = test system: SF-539 CNS
[8] = test system: SNB-19 CNS
[9] = test system: IGROV1 ovarian
[10] = test system: HT29 colon

SMILES | GI50 [1] | TGI [1] | GI50 [2] | TGI [2] | GI50 [3] | TGI [3] | GI50 [4] | TGI [4] | GI50 [5] | TGI [5] | GI50 [6] | TGI [6] | GI50 [7] | TGI [7] | GI50 [8] | TGI [8] | GI50 [9] | TGI [9] | GI50 [10] | TGI [10]
Cc1cc(S(=O)(=O)Nc2nc3ccsc3c(=O)n2Cc2ccccc2)c(S)cc1Cl | 57.5 µM | > 100 µM | 44 µM | > 100 µM | 14.2 µM | 49.3 µM | 86 µM | > 100 µM | 30.3 µM | 72.5 µM | 29.7 µM | 91.1 µM | 28.1 µM | 70.3 µM | 32.4 µM | > 100 µM | 43.1 µM | > 100 µM | 43.7 µM | > 100 µM
CCCCc1oc2ccccc2c1C(=O)c1cc(I)c(OCCN(CC)CC)c(I)c1 | 4.14 µM | 15.6 µM | 3.47 µM | 16.2 µM and 20.9 µM |  | 14.3 µM | 2.54 µM and 7.07 µM | 13.2 µM and 28.4 µM | 2 µM | 5.18 µM | 5.12 µM | 17.8 µM |  | 10.5 µM | 2.04 µM | 5.35 µM and 18.7 µM | 4.66 µM |  | 1.97 µM | 5.01 µM and 8.27 µM
CCCCCC/C=C\CCCCCCCCCc1c(O)c(OC)cc(O)c1CN(C)C |  | 22.5 µM |  | 3.38 µM |  | 33.4 µM |  | 15.5 µM |  | 31.6 µM |  | 28.8 µM |  | 22.2 µM |  | 26.5 µM |  | 11 µM |  | 16.1 µM
c1ccc([P+](CCC[P+](c2ccccc2)(c2ccccc2)c2ccccc2)(c2ccccc2)c2ccccc2)cc1 |  | > 100 µM | 5.51 µM | > 100 µM | 14.6 µM | > 100 µM |  | > 100 µM | 23 µM | > 100 µM |  | > 100 µM | 15.1 µM | > 100 µM | 8.95 µM | > 100 µM | 14 µM | > 100 µM | 9.89 µM | > 100 µM
CC1CCC(C#N)(NOC2=NCCN2)CC1 (centres undefined) | 15.2 µM | 30.1 µM | 47.2 µM | > 100 µM | 40.5 µM | > 100 µM | 11.6 µM | > 100 µM | 54.9 µM | > 100 µM | 26.3 µM | > 100 µM | 23.4 µM | 45.4 µM | > 100 µM | > 100 µM | 41.7 µM | > 100 µM | > 100 µM | > 100 µM
COc1ccc(NCc2c(O)ccc3ccccc23)cc1 |  | 31.2 µM |  | > 100 µM |  | > 100 µM |  | > 100 µM |  | > 100 µM |  | 38.6 µM |  | 25.9 µM |  | > 100 µM |  | > 100 µM |  | > 100 µM
C#CCOc1cccc(Nc2ncnc3c2ncn3C2CCN(C(=O)CCl)C2)c1 (centres undefined) | 17.7 µM | 31.8 µM | 19.4 µM | 45 µM | > 100 µM | > 100 µM | 15.2 µM | 29.6 µM | 18.6 µM | 35.9 µM | 17.1 µM | 31.7 µM | 17.7 µM | 32.4 µM | 35.1 µM | > 100 µM | 16.4 µM | 36.7 µM | 19.4 µM | 37.4 µM
O=C(Nn1c2c(sc1=NC1CC1)C(=O)c1ccccc1C2=O)c1cc2ccc1CCc1ccc(cc1)CC2 | 1.39 µM | 3.03 µM | 1.61 µM | 4.58 µM | 20.7 µM | 63.4 µM | 0.85 µM | 2.77 µM | 1.37 µM | 9.82 µM | 18.4 µM | 34.7 µM | 1.67 µM | 3.06 µM | 3.09 µM | 11.7 µM | 1.16 µM | 4.74 µM | 3.32 µM | 28.7 µM
COc1ccc(Cn2cc3c(c2-c2ccccc2)CCc2cncnc2-3)cc1 | 11.3 µM | 35.8 µM | 10.2 µM | 33.7 µM | 4.87 µM | 17.4 µM | 10.3 µM | 24.2 µM | 5.12 µM | 18.3 µM | 8.09 µM | 26.6 µM | 6 µM | 18.7 µM | 10.2 µM | 25 µM | 5.8 µM | 23.9 µM | 3.9 µM | 12.9 µM
COc1cc(/C=N/O)nc(-c2ccccn2)c1 | 0.241 µM | 12.6 µM | 0.255 µM | > 100 µM | 0.717 µM | 19.4 µM | 0.183 µM | 6.82 µM | 0.541 µM | > 100 µM | 0.325 µM | > 100 µM | 0.386 µM | 10.4 µM | 0.558 µM | > 100 µM | 0.349 µM | 24.1 µM | 0.454 µM | > 100 µM
Clc1ccc2c(NCCN3CCN(c4ccnc(N5CCCC5)n4)CC3)ccnc2c1 | 2.68 µM | 8.01 µM | 3.87 µM | 28.2 µM | 2.39 µM | 8.51 µM | 1.82 µM | 4.47 µM | 2.06 µM | 5.89 µM | 3.9 µM | 21.3 µM | 1.73 µM | 3.67 µM | 7.06 µM | 28.7 µM | 4.48 µM | 23.7 µM | 1.34 µM | 12.2 µM
Cc1[nH]ccc2cc3nc4ccccc4c3cc12 | 0.963 µM | 10.6 µM | 2.65 µM | 10.7 µM | 0.421 µM | 2.15 µM | 2.02 µM | 8.47 µM | 2 µM | 8.24 µM | 4.47 µM | 12.9 µM | 3.07 µM | 12.6 µM | 5.65 µM | 19.6 µM | 3.65 µM | 15.2 µM | 1.16 µM | 3.55 µM
c1cc(-c2cnn3nc(N4CCOCC4)ccc23)nc(NC2CC2)n1 | 5.7 µM | > 25 µM | 14.9 µM | > 25 µM | 5.66 µM | 16.6 µM | 7.12 µM | > 21.4 µM | 10.2 µM | > 25 µM | 7.7 µM | 20.3 µM | 6.11 µM | 20.4 µM | 10.6 µM | > 25 µM | 10.3 µM | > 25 µM | 8.35 µM | > 25 µM
